From PubChem BioAssay (NCI)
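Growth conditions: 96-well plates. Treatment: test compound, 48 hours, 5 concentrations. Analysis: linear interpolation between bracketing concentrations; unreached endpoints set to highest concentration. Definition used: TGI = concentration required for complete inhibition of growth.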

Experiments:
Assay in all cases: NCI-60 cell line screen, 48 h
SN12C renal = system: SN12C renal
HOP-62 NSCLC = system: HOP-62 NSCLC
MDA-MB-435 = system: MDA-MB-435
MCF7 breast = system: MCF7 breast
SK-MEL-2 melanoma = system: SK-MEL-2 melanoma
PC-3 prostate = system: PC-3 prostate
OVCAR-5 ovarian = system: OVCAR-5 ovarian
MDA-MB-231 breast = system: MDA-MB-231 breast
DU-145 prostate = system: DU-145 prostate
NCI-H23 lung = system: NCI-H23 lung
CAKI-1 renal = system: CAKI-1 renal
HT29 colon = system: HT29 colon
LOX IMVI melanoma = system: LOX IMVI melanoma
K-562 leukemia = system: K-562 leukemia
SK-OV-3 ovarian = system: SK-OV-3 ovarian
BT-549 breast = system: BT-549 breast
SNB-78 CNS = system: SNB-78 CNS
T-47D breast = system: T-47D breast
NCI-H522 lung = system: NCI-H522 lung
LXFL 529 NSCLC = system: LXFL 529 NSCLC
HCC-2998 colon = system: HCC-2998 colon
TK-10 renal = system: TK-10 renal
SR leukemia = system: SR leukemia
ACHN renal = system: ACHN renal
RPMI-8226 leukemia = system: RPMI-8226 leukemia
U251 CNS = system: U251 CNS
KM12 colon = system: KM12 colon
SF-295 CNS = system: SF-295 CNS
DMS 273 small cell lung = system: DMS 273 small cell lung
MDA-N = system: MDA-N
OVCAR-4 ovarian = system: OVCAR-4 ovarian
SF-539 CNS = system: SF-539 CNS
NCI-H226 lung = system: NCI-H226 lung
HOP-18 NSCLC = system: HOP-18 NSCLC
DMS 114 small cell lung = system: DMS 114 small cell lung
SNB-75 CNS = system: SNB-75 CNS
HOP-92 NSCLC = system: HOP-92 NSCLC
A498 renal = system: A498 renal
MALME-3M melanoma = system: MALME-3M melanoma
M14 melanoma = system: M14 melanoma
NCI/ADR-RES ovarian = system: NCI/ADR-RES ovarian
SF-268 CNS = system: SF-268 CNS
CCRF-CEM leukemia = system: CCRF-CEM leukemia
OVCAR-8 ovarian = system: OVCAR-8 ovarian
HCT-15 colon = system: HCT-15 colon
OVCAR-3 ovarian = system: OVCAR-3 ovarian
786-0 renal = system: 786-0 renal
DLD-1 colon = system: DLD-1 colon
A549 NSCLC = system: A549 NSCLC
XF 498 CNS = system: XF 498 CNS
RXF 393 renal = system: RXF 393 renal
RXF-631 renal = system: RXF-631 renal
HL-60(TB) leukemia = system: HL-60(TB) leukemia
SNB-19 CNS = system: SNB-19 CNS
SK-MEL-5 melanoma = system: SK-MEL-5 melanoma
KM20L2 colon = system: KM20L2 colon
UACC-62 melanoma = system: UACC-62 melanoma
UO-31 renal = system: UO-31 renal
HS 578T breast = system: HS 578T breast
COLO 205 colon = system: COLO 205 colon
HCT-116 colon = system: HCT-116 colon
SK-MEL-28 melanoma = system: SK-MEL-28 melanoma
IGROV1 ovarian = system: IGROV1 ovarian
EKVX NSCLC = system: EKVX NSCLC
NCI-H460 lung = system: NCI-H460 lung
MOLT-4 leukemia = system: MOLT-4 leukemia
UACC-257 melanoma = system: UACC-257 melanoma
SW-620 colon = system: SW-620 colon
M19-MEL melanoma = system: M19-MEL melanoma

## CS(=O)(=O)c1nc(Cl)c(Cl)c(C#N)c1Cl
SN12C renal
  TGI: 5.9 µM
HOP-62 NSCLC
  TGI: 35.6 µM
MDA-MB-435
  TGI: 7 µM
MCF7 breast
  TGI: 13.2 µM
SK-MEL-2 melanoma
  TGI: 14.5 µM
PC-3 prostate
  TGI: 11.6 µM
OVCAR-5 ovarian
  TGI: 9.41 µM
MDA-MB-231 breast
  TGI: 3.24 µM
DU-145 prostate
  TGI: 21.4 µM
NCI-H23 lung
  TGI: 9 µM
CAKI-1 renal
  TGI: 1.69 µM
HT29 colon
  TGI: 4.35 µM
LOX IMVI melanoma
  TGI: 4.3 µM
K-562 leukemia
  TGI: 20.6 µM
SK-OV-3 ovarian
  TGI: 10.7 µM
BT-549 breast
  TGI: 3.37 µM
SNB-78 CNS
  TGI: > 36 µM
T-47D breast
  TGI: 4.83 µM
NCI-H522 lung
  TGI: 1.28 µM
LXFL 529 NSCLC
  TGI: 2.99 µM
HCC-2998 colon
  TGI: 29.8 µM
TK-10 renal
  TGI: 5.91 µM
SR leukemia
  TGI: > 36.4 µM
ACHN renal
  TGI: 5.26 µM
RPMI-8226 leukemia
  TGI: 14.6 µM
U251 CNS
  TGI: 11.7 µM
KM12 colon
  TGI: 17.6 µM
SF-295 CNS
  TGI: 35.1 µM
DMS 273 small cell lung
  TGI: 24.6 µM
MDA-N
  TGI: 3.5 µM
OVCAR-4 ovarian
  TGI: 3.34 µM
SF-539 CNS
  TGI: 11.3 µM
NCI-H226 lung
  TGI: 24.6 µM
HOP-18 NSCLC
  TGI: 11.5 µM
DMS 114 small cell lung
  TGI: 32.2 µM
SNB-75 CNS
  TGI: 26.9 µM
HOP-92 NSCLC
  TGI: 3.73 µM
A498 renal
  TGI: 35.3 µM
MALME-3M melanoma
  TGI: 4.45 µM
M14 melanoma
  TGI: 3.64 µM
NCI/ADR-RES ovarian
  TGI: 6.19 µM
SF-268 CNS
  TGI: 21.9 µM
CCRF-CEM leukemia
  TGI: > 100 µM
OVCAR-8 ovarian
  TGI: 9.77 µM
HCT-15 colon
  TGI: 3.5 µM
OVCAR-3 ovarian
  TGI: 4.73 µM
786-0 renal
  TGI: 4.11 µM
DLD-1 colon
  TGI: 3.13 µM
A549 NSCLC
  TGI: 40.4 µM
XF 498 CNS
  TGI: 7.93 µM
RXF 393 renal
  TGI: 3.07 µM
RXF-631 renal
  TGI: 38.9 µM
HL-60(TB) leukemia
  TGI: > 100 µM
SNB-19 CNS
  TGI: 36 µM
SK-MEL-5 melanoma
  TGI: 15.5 µM
KM20L2 colon
  TGI: 20.8 µM
UACC-62 melanoma
  TGI: 10.8 µM
UO-31 renal
  TGI: 4.31 µM
HS 578T breast
  TGI: > 58.7 µM
COLO 205 colon
  TGI: 3.08 µM
HCT-116 colon
  TGI: 4.47 µM
SK-MEL-28 melanoma
  TGI: 4.75 µM
IGROV1 ovarian
  TGI: 14.1 µM
EKVX NSCLC
  TGI: 27.4 µM
NCI-H460 lung
  TGI: 32.4 µM
MOLT-4 leukemia
  TGI: 6.02 µM
UACC-257 melanoma
  TGI: 5.52 µM
SW-620 colon
  TGI: 3.13 µM

## O=C(/C=C/c1ccc(Cl)c(Cl)c1)C1CCC(Cl)CC1 (stereo unspecified)
SN12C renal
  TGI: 32.7 µM
HOP-62 NSCLC
  TGI: > 100 µM
OVCAR-5 ovarian
  TGI: 43.3 µM
NCI-H23 lung
  TGI: 38.8 µM
CAKI-1 renal
  TGI: 50.1 µM
M19-MEL melanoma
  TGI: 31.7 µM
HT29 colon
  TGI: 31.7 µM
LOX IMVI melanoma
  TGI: 30.7 µM
SK-OV-3 ovarian
  TGI: 33 µM
SNB-78 CNS
  TGI: 42.3 µM
NCI-H522 lung
  TGI: 32.9 µM
LXFL 529 NSCLC
  TGI: 32.3 µM
HCC-2998 colon
  TGI: 32.8 µM
TK-10 renal
  TGI: 90.3 µM
ACHN renal
  TGI: 32 µM
RPMI-8226 leukemia
  TGI: 21 µM
U251 CNS
  TGI: 28.3 µM
KM12 colon
  TGI: 46.1 µM
SF-295 CNS
  TGI: 35.8 µM
DMS 273 small cell lung
  TGI: 32.1 µM
OVCAR-4 ovarian
  TGI: 39.6 µM
SF-539 CNS
  TGI: 33.6 µM
NCI-H226 lung
  TGI: 94.8 µM
HOP-18 NSCLC
  TGI: 58.1 µM
DMS 114 small cell lung
  TGI: 30.7 µM
SNB-75 CNS
  TGI: 44.3 µM
HOP-92 NSCLC
  TGI: 86.6 µM
A498 renal
  TGI: 83.1 µM
MALME-3M melanoma
  TGI: 41.1 µM
M14 melanoma
  TGI: 33.4 µM
SF-268 CNS
  TGI: 37.1 µM
OVCAR-8 ovarian
  TGI: 38.5 µM
HCT-15 colon
  TGI: 35.1 µM
OVCAR-3 ovarian
  TGI: 28.4 µM
786-0 renal
  TGI: 30.6 µM
DLD-1 colon
  TGI: 29.8 µM
A549 NSCLC
  TGI: 46.8 µM
XF 498 CNS
  TGI: 33 µM
RXF 393 renal
  TGI: 37.9 µM
RXF-631 renal
  TGI: 33.8 µM
SNB-19 CNS
  TGI: 39 µM
SK-MEL-5 melanoma
  TGI: 33.4 µM
KM20L2 colon
  TGI: 46.7 µM
UACC-62 melanoma
  TGI: 31.2 µM
UO-31 renal
  TGI: 33.9 µM
COLO 205 colon
  TGI: 50.3 µM
HCT-116 colon
  TGI: 25.1 µM
SK-MEL-28 melanoma
  TGI: 31.4 µM
IGROV1 ovarian
  TGI: 33.9 µM
EKVX NSCLC
  TGI: 32 µM
NCI-H460 lung
  TGI: 73.8 µM
UACC-257 melanoma
  TGI: 35.1 µM
SW-620 colon
  TGI: 31.7 µM
